According to US10912815B2, “Inhibitors of mitochondrial fission and methods of use thereof” (The Board of Trustees of the Leland Stanford Junior …, priority 2011, dated 2021):
No end group written: not given here.

Assays:
Mfn1 = target: T1, Mfn1 (Homo sapiens, UniProt Q8IWA4); experiment: In vitro GTPase assay, recombinant Mfn1; assay type: biochemical; settings: recombinant Mfn1 25 ng, FIG. 2B
T1 sequence (Q8IWA4 1-741): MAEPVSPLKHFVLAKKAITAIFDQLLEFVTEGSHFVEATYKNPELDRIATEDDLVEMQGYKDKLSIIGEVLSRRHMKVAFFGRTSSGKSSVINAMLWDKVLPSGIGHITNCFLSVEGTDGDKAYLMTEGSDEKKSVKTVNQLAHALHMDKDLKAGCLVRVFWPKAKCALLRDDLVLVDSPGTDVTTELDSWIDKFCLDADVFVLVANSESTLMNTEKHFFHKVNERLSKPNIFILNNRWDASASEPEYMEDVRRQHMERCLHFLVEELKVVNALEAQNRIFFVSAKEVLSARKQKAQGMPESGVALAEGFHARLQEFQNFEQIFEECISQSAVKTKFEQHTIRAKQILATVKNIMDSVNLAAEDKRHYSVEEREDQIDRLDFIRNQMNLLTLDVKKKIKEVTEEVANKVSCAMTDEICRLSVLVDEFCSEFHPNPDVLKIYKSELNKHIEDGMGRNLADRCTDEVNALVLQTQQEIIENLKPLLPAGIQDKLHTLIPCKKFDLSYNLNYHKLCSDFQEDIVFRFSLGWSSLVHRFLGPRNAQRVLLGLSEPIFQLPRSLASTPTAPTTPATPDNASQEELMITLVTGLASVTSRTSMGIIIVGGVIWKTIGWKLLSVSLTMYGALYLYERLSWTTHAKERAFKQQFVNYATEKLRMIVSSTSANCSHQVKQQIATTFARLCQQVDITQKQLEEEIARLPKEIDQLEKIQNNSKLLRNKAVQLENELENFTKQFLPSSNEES
Description: First, mitochondrial fission inhibitor constructs were tested to determine what, if any, effects each peptide had on enzyme (GTPase) activity. Recombinant protein Drp1, Mfn1, OPA1 or dynamin-1 (25 ng) was incubated with the indicated modulator peptides for 30 min. GTPase activity was assayed in vitro using a GTPase assay kit (Innova Biosciences, Littleton, USA, or Novus Biologicals, Littleton, Colo.) according to manufacturer's instructions.

SH-SY5Y cells [1] = experiment: Mitochondrial membrane potential in SH-SY5Y cells (TMRM); assay type: cell-based, human; settings: SH-SY5Y in the presence of MPP+ or CCCP, FIG. 6B
Description: (§1) The effects of MPP+ or CCCP on translocation of Drp1 in the absence and presence of P110 was measured using confocal microscopy. Cultured SH-SY5Y cells in black 96-well plate were treated with Drp1 peptide inhibitor P110 (1 μM) 30 min prior to treatment of MPP+ (2 mM) or CCCP (5 uM). After 2 hrs of treatment, cells were stained with MITOSOX™ (red mitochondrial superoxide indicator) (5 uM, for 10 min, mitochondrial ROS) or TMRM (0.5 uM, for 20 min, MMP) at 37° C. For total ROS detection, cells were treated with MPP+ or CCCP for 24 hrs. ROS level was measured by CM-H2DCFDA (1 μM for 30 min, Invitrogen). Cells were washed with PBS for three times. The detection was performed in a fluorescence microplate reader (Tecan, Infinite M1000) according to manufacturer's instructions. Measurements were normalized to the cell number counted using Hoechst staining.
(§2) Mitochondrial membrane potential was also determined using TMRM (tetramethylrhodamine methylester). […] Fluoresence detection was performed using black 96-well plates in a fluorescence microplate reader at 560 nm excitation and 690 nm emission and potential was assessed by quenching of the fluorescent signal. […] A kinetic change of mitochondrial superoxide production was determined by using MITOSOX™ (red mitochondrial superoxide indicator). […]

[2] = test system: isolated mouse liver mitochondria with Drp1 recombinant protein; experiment: Superoxide production of isolated mouse liver mitochondria after addition of recombinant Drp1; assay type: biochemical; settings: isolated mouse liver mitochondria 50 μg, Drp1 50 ng, P110 1 μM, p<0.05, n=3, FIG. 6C
Description: Mitochondrial membrane potential was also determined using TMRM (tetramethylrhodamine methylester). Fifty μg of mitochondria were incubated with recombinant Drp1 (50 ng) followed by incubation with TMRM (0.5 μM) in the presence or absence of P110 (1 μM) or NAC (2.5 mM). Fluoresence detection was performed using black 96-well plates in a fluorescence microplate reader at 560 nm excitation and 690 nm emission and potential was assessed by quenching of the fluorescent signal. The data are presented as mean±S.E. of percentage relative to control mitochondria from three independent experiments (FIG. 6B, #, p<0.05 vs. control cells; *, p<0.05; **, P<0.01 vs. MPP+- or CCCP-treated cells). Isolated mouse liver mitochondria (50 μg) were incubated with Drp1 recombinant protein (50 ng) in the presence or absence of P110 (1 μM). A kinetic change of mitochondrial superoxide production was determined by using MITOSOX™ (red mitochondrial superoxide indicator). […] Mitochondrial membrane potential of isolated mouse liver mitochondria was determined by TMRM, as described above, in the indicated groups. […] Protein levels of cytochrome c in the mitochondria were determined by western blot analysis with anti-cytochrome c antibodies in the indicated groups (insert, FIG. 6D). Total ROS production was determined by staining SH-SY5Y cells with CM2HDCFA (1 μM […] at 37° C.) in the indicated groups. […]

[3] = test system: isolated mouse liver mitochondria with Drp1 recombinant protein; experiment: Membrane potential of isolated mouse liver mitochondria incubated with Drp1 (TMRM); assay type: biochemical; settings: P110 1 μM, NAC 2.5 mM, FIG. 6D bottom
Description: Mitochondrial membrane potential was also determined using TMRM (tetramethylrhodamine methylester). Fifty μg of mitochondria were incubated with recombinant Drp1 (50 ng) followed by incubation with TMRM (0.5 μM) in the presence or absence of P110 (1 μM) or NAC (2.5 mM). Fluoresence detection was performed using black 96-well plates in a fluorescence microplate reader at 560 nm excitation and 690 nm emission and potential was assessed by quenching of the fluorescent signal. The data are presented as mean±S.E. of percentage relative to control mitochondria from three independent experiments (FIG. 6B, #, p<0.05 vs. control cells; *, p<0.05; **, P<0.01 vs. MPP+- or CCCP-treated cells). Isolated mouse liver mitochondria (50 μg) were incubated with Drp1 recombinant protein (50 ng) in the presence or absence of P110 (1 μM). A kinetic change of mitochondrial superoxide production was determined by using MITOSOX™ (red mitochondrial superoxide indicator). The data are presented as mean±S.E. of percentage relative to the value at basal level from three independent experiments (FIG. 6C, #, p<0.05 vs. control mitochondria; *, p<0.05 vs. mitochondria with the addition of Drp1). Mitochondrial membrane potential of isolated mouse liver mitochondria was determined by TMRM, as described above, in the indicated groups. NAC (2.5 mM) was used as a positive control (FIG. 6D). Protein levels of cytochrome c in the mitochondria were determined by western blot analysis with anti-cytochrome c antibodies in the indicated groups (insert, FIG. 6D). Total ROS production was determined by staining SH-SY5Y cells with CM2HDCFA (1 μM […] at 37° C.) in the indicated groups. The data are presented as mean±S.E. of percentage relative to control group from three independent experiments (FIG. 6E, *, p<0.05 vs. either MPP+ or CCCP treated-group; #, p<0.05 vs. control group).
The mitochondrial membrane potential of isolated mouse liver mitochondria was then measured in the presence or absence of P110.

SH-SY5Y cells [4] = experiment: Total ROS production in SH-SY5Y cells (CM-H2DCFDA); assay type: cell-based, human; settings: MPP+ and CCCP 24 hrs, FIG. 6E
Description: as §1, §2

SH-SY5Y cells [5] = experiment: Apoptosis markers on mitochondria of SH-SY5Y cells (western blot: NT-Bax, cytochrome c, Bcl-2); assay type: cell-based, human; settings: MPP+ 2 mM 1 hour, FIG. 9A
Description: SH-SY5Y neuronal cells were treated with P110 followed by the exposure to MPP+(2 mM for 1 hour). Active form of Bax (NT-Bax), cytochrome c and Bcl-2 on the mitochondria were determined by western blot analysis with the indicated antibodies. Shown are representative data of three independent experiments. Quantification of the data are provided as mean±SE of three independent experiments.

## RRRQRRKKRGYGGDLLPRGS (RRRQRRKKRGYGGDLLPRGS-NH2) [P110, TAT47-57 carrier, GG linker, Drp1 region 110 (GTPase domain) peptide DLLPRGS; C-terminus C(O)-NH2]
Mfn1
  effect on GTPase activity of Mfn1 (mitofusin 1): no effects
SH-SY5Y cells [1]
  mitochondrial membrane potential (MMP): significantly recovered
[2]
  Drp1-induced ROS (superoxide) elevation in the mitochondria: abolished
[3]
  mitochondrial membrane potential (MMP) of isolated mitochondria after Drp1 addition: improved the MMP
SH-SY5Y cells [4]
  total ROS produced by the mitochondrial stressors: greatly reduced
SH-SY5Y cells [5]
  Bcl-2 levels on the mitochondria: improved decreased Bcl-2 levels
  accumulation of active Bax on the mitochondria: greatly reduced accumulation of active Bax
  release of cytochrome c from the mitochondria: blocked the release of cytochrome c
